The source of these data is ChEMBL document CHEMBL1201862, “PubChem BioAssay data set” (2004).

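Exposure lasted 48 hours, with cells grown in 96-well plates and compounds tested at five concentrations. GI50 is the concentration that inhibits growth by half.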 Activity calls are given as the source filed them. No stated cut-off is given here; in the data, active = GI50 up to about 1.1 µM and inactive = higher.

Some test systems named below: SK-MEL-2; KM12; MCF7; UO-31; NCI-H460; UACC-62; HOP-92; MDA-N; OVCAR-3; MOLT-4; HCT-116; Malme-3M; HT-29; UACC-257; SF-295; CAKI-1; EKVX; HCT-15; OVCAR-5.
Experiment in all cases: growth of human tumour cells (NCI), 48 h

For the compound `CCCCC1Nc2ccccc2-c2ccnc(Cl)c21` (configuration not stated), the GI50 was 16.8 µM (inactive) in the assay on SK-MEL-2; 20.7 µM (inactive) with KM12; 35 µM (inactive) in the assay with MCF7; 20 µM (inactive) in the assay with UO-31; 32.1 µM (inactive) in the assay on NCI-H460; 13.7 µM (inactive) in the assay on UACC-62. Also, the GI50 in the assay with HOP-92 is 14.2 µM (inactive); in the assay with MDA-N it was 15.6 µM (inactive); with OVCAR-3, 11.1 µM (inactive); in the assay with MOLT-4 it was 17.8 µM (inactive); in the assay on HCT-116 it was 15.7 µM (inactive); in the assay on Malme-3M it was 20.8 µM (inactive). Also, the GI50 with HT-29 is 10.8 µM (inactive); with UACC-257 it was 20 µM (inactive); in the assay on SF-295, 21.5 µM (inactive); in the assay with CAKI-1, 3.61 µM (inactive); in the assay with EKVX it was 24.2 µM (inactive); in the assay on HCT-15, 16.9 µM.

Consider `C(=N\c1nc2cc3sc(/N=C/c4cccs4)nc3cc2s1)/c1cccs1`, for which the GI50 in the assay with SK-MEL-2 was > 100 µM (inactive); in the assay on KM12 it was > 100 µM (inactive); in the assay with MCF7, 33.4 µM (inactive); with UO-31, > 100 µM (inactive); in the assay with NCI-H460 it was 5.36 µM (inactive); in the assay with HOP-92 it was > 100 µM (inactive). Further, the GI50 with MDA-N was > 100 µM (inactive); in the assay with OVCAR-3, > 100 µM (inactive); in the assay with MOLT-4, 28.3 µM (inactive); in the assay with HCT-116, > 100 µM (inactive); in the assay with Malme-3M, > 100 µM (inactive); with HT-29 it was 44.8 µM (inactive). Moreover, the GI50 was > 100 µM (inactive) with OVCAR-5; 70.1 µM (inactive) in the assay with UACC-257; > 100 µM (inactive) in the assay with SF-295; > 100 µM (inactive) in the assay with CAKI-1; 34.4 µM (inactive) with EKVX; 73.5 µM with HCT-15.

With `O=C(O)C(NCc1ccccc1)C(NCc1ccccc1)C(=O)O` (configuration not stated), the GI50 with SK-MEL-2, in the assay with KM12, with MCF7, in the assay with UO-31, in the assay with NCI-H460 and in the assay with UACC-62 was > 100 µM (inactive) in each case. The GI50 in the assay with HOP-92, in the assay with MDA-N, in the assay with OVCAR-3, in the assay with MOLT-4, in the assay with HCT-116 and in the assay on Malme-3M was > 100 µM (inactive) each time. In addition, the GI50 in the assay with HT-29 is > 100 µM (inactive); in the assay on UACC-257 it was > 100 µM (inactive); in the assay with SF-295 it was > 100 µM (inactive); with CAKI-1 it was > 100 µM (inactive); with EKVX, > 100 µM (inactive); in the assay with HCT-15 it was above 100 µM.

Turning to `COc1ccc2nc(N/N=C/c3ccc(C)s3)cc(C)c2c1`, the GI50 with SK-MEL-2 is 21.7 µM (inactive); in the assay on KM12, 19.7 µM (inactive); in the assay with MCF7 it was 18 µM (inactive); with UO-31 it was 17.7 µM (inactive); with UACC-62 it was 16.8 µM (inactive); in the assay on HOP-92, 13.9 µM (inactive). The GI50 with MDA-N is 16.3 µM (inactive); in the assay with OVCAR-3 it was 19.6 µM (inactive); in the assay with MOLT-4, 12.9 µM (inactive); in the assay with HCT-116, 4.65 µM (inactive); in the assay with Malme-3M, 31 µM (inactive); in the assay with HT-29, 6.08 µM (inactive). Besides, the GI50 with OVCAR-5 was 15.7 µM (inactive); with UACC-257, 17.1 µM (inactive); in the assay on SF-295, 16.9 µM (inactive); in the assay on CAKI-1, 23 µM (inactive); with EKVX, 26.4 µM (inactive); with HCT-15 it was 7.96 µM.
